Assay results taken from patent publication US9073862B2, “Substituted 2-oxy-quinoline-3-carboxamides as KCNQ2/3 modulators” (Grünenthal GmbH, priority 2010, dated 2015).

Biological target: T1, KCNQ2/3 channels (Homo sapiens, UniProt O43525+O43526)
T1 construct: expressed in transfected cells; host or cells: CHO-K1
Experiment: Fluorescence assay using a voltage sensitive dye (fluorimetry)
Type: cell-based
Conditions: CHO-K1 cells expressing KCNQ2/3 channels; for Emax: relative to retigabine = 100%, read-out: Fluorimetry % efficacy (retigabine = 100%)
Procedure: Method I. Fluorescence Assay Using a Voltage Sensitive Dye (Fluorimetry)
[…] CHO-K1 cells expressing KCNQ2/3 channels are cultivated adherently at 37° C., 5% CO2 and 95% humidity in cell culture bottles (e.g. 80 cm^2 TC flasks, Nunc) with DMEM-high glucose (Sigma Aldrich, D7777) including 10% FCS (PAN Biotech, e.g. 3302-P270521) or alternatively MEM Alpha Medium (1×, liquid, Invitrogen, #22571), 10% fetal calf serum (FCS) (Invitrogen, #10270-106, heat-inactivated) and the necessary selection antibiotics.
Before being sown out for the measurements, the cells are washed with 1×DPBS buffer Ca^2+/Mg^2+-free (e.g. Invitrogen, #14190-094) and detached from the bottom of the culture vessel by using Accutase (PAA Laboratories, #L11-007) (incubation with Accutase for 15 min at 37° C.). The cell number is determined using a CASY™ cell counter (TCC, Schärfe System). Depending on the optimal density for each individual cell line, 20,000-30,000 cells/well/100 μl are seeded onto 96-well Corning™ CellBIND™ assay plates (Flat Clear Bottom Black Polystyrene Microplates, #3340). Freshly seeded cells are then left to settle for one hour at room temperature, followed by incubation for 24 hours at 37° C., 5% CO2 and 95% humidity.
The voltage-sensitive fluorescent dye from the Membrane Potential Assay Kit (Red™ Bulk format part R8123 for FLIPR, MDS Analytical Technologies™) is prepared by dissolving the contents of one vessel Membrane Potential Assay Kit Red Component A in 200 ml of extracellular buffer (ES buffer, 120 mM NaCl, 1 mM KCl, 10 mM HEPES, 2 mM CaCl2, 2 mM MgCl2, 10 mM glucose; pH 7.4). After removal of the nutrient medium, the cells are washed once with 200 μl of ES buffer, then loaded for 45 min at room temperature in 100 μl of dye solution in the dark.
Fluorescence measurements are carried out in a BMG Labtech FLUOstar™, BMG Labtech NOVOstar™ or BMG Labtech POLARstar™ instrument (525 nm excitation, 560 nm emission, Bottom Read mode). After incubation with the dye, 50 μl of the test substances in the desired concentrations, or 50 μl of ES buffer for control purposes, are applied to the wells of the assay plate and incubated for 30 min at room temperature while being shielded from light. The fluorescence intensity of the dye is then measured for 5 min and the fluorescence value F1 of each well is thus determined at a given, constant time. 15 μl of a KCl solution are then added to each well (final concentration of potassium ions 92 mM). The change in fluorescence intensity is subsequently monitored until all the relevant values have been obtained (mainly 5-30 min). At a given time post KCl application, a fluorescence value F2 is determined, in this case at the time of the fluorescence peak.
For calculation, the fluorescence intensity F2 is corrected for the fluorescence intensity F1, and the activity (ΔF/F) of the target compound on the potassium channel is determined as follows:
In order to determine whether a substance has agonistic activity,
[formula] can be related to
[formula] of control wells.
[formula] is determined by adding to the well only the buffer solution instead of the test substance, determining the value F1K of the fluorescence intensity, adding the potassium ions as described above, and measuring a value F2K of the fluorescence intensity. F2K and F1K are then calculated as follows: […]
A substance has an agonistic activity on the potassium channel if
[formula] is greater than
Independently of the comparison of
[formula] it is possible to conclude that a target compound has agonistic activity if
[formula] increases dose dependently.
Calculations of EC50 and IC50 values are carried out with the aid of ‘Prism v4.0’ software (Graph Pad Software™).

| SMILES | Emax | EC50 |
| --- | --- | --- |
| CCOc1nc2cc(C(F)(F)F)ccc2c(C)c1C(=O)NCc1cccs1 [Example 2, 2-ethoxy-4-methyl-N-(thiophene-2-yl-methyl)-7-(trifluoromethyl)-quinoline-3-carboxylic acid amide] | 175% | 64 nM |
| Cc1c(C(=O)NCc2ccc(F)cc2)c(OC(C)C)nc2cc(C(F)(F)F)ccc12 [Example 11, N-[(4-fluorophenyl)-methyl]-2-isopropoxy-4-methyl-7-(trifluoromethyl)-quinoline-3-carboxylic acid amide] | 164% | 52 nM |
| COc1nc2cc(C(F)(F)F)ccc2c(C)c1C(=O)NCc1ccc(C)cc1 [Example 25, 2-methoxy-4-methyl-N-(p-tolyl-methyl)-7-(trifluoromethyl)-quinoline-3-carboxylic acid amide] | 96% | 182 nM |
| CCOc1nc2cc(C(F)(F)F)ccc2c(C)c1C(=O)NCc1ccc(C)cc1 [Example 26, 2-ethoxy-4-methyl-N-(p-tolyl-methyl)-7-(trifluoromethyl)-quinoline-3-carboxylic acid amide] | 117% | 131 nM |
| COc1nc2cc(C(F)(F)F)ccc2c(C)c1C(=O)NCCCC(C)C [Example 28, 2-methoxy-4-methyl-N-(4-methyl-pentyl)-7-(trifluoromethyl)-quinoline-3-carboxylic acid amide] | 184% | 81 nM |
| CCOc1nc2cc(C#N)ccc2c(C)c1C(=O)NCc1cccc(F)c1 [Example 36, 7-cyano-2-ethoxy-N-[(3-fluorophenyl)-methyl]-4-methyl-quinoline-3-carboxylic acid amide] | 105% | 56 nM |
| COc1nc2cc(C#N)ccc2c(C)c1C(=O)NCc1cccc(F)c1 [Example 37, 7-cyano-N-[(3-fluorophenyl)-methyl]-2-methoxy-4-methyl-quinoline-3-carboxylic acid amide] | 85% | 261 nM |
| COc1nc2cc(C(F)(F)F)ccc2c(C)c1C(=O)NCc1cccc(F)c1OC [Example 39, N-[(3-fluoro-2-methoxy-phenyl)-methyl]-2-methoxy-4-methyl-7-(trifluoromethyl)-quinoline-3-carboxylic acid amide] | 10% |  |
| COc1nc2cc(C(F)(F)F)ccc2c(C)c1C(=O)NCc1cccc(F)c1O [Example 42, N-[(3-fluoro-2-hydroxy-phenyl)-methyl]-2-methoxy-4-methyl-7-(trifluoromethyl)-quinoline-3-carboxylic acid amide] | 137% | 123 nM |
| COc1nc2cc(C(F)(F)F)ccc2c(C)c1C(=O)NCc1cc(F)ccc1O [Example 44, N-[(5-fluoro-2-hydroxy-phenyl)-methyl]-2-methoxy-4-methyl-7-(trifluoromethyl)-quinoline-3-carboxylic acid amide] | 173% | 79 nM |

Now from value to compound:

| Emax | EC50 | SMILES |
| --- | --- | --- |
| 57% |  | COc1nc2cc(C(F)(F)F)ccc2c(C)c1C(=O)NCCC(C)(C)C [Example 1, N-(3,3-dimethyl-butyl)-2-methoxy-4-methyl-7-(trifluoromethyl)-quinoline-3-carboxylic acid amide] |
| 119% | 390 nM | Cc1c(C(=O)NCc2cccc(F)c2)c(OCCO)nc2cc(C(F)(F)F)ccc12 [Example 9, N-[(3-fluorophenyl)-methyl]-2-(2-hydroxy-ethoxy)-4-methyl-7-(trifluoromethyl)-quinoline-3-carboxylic acid amide] |
| 155% | 75 nM | CCOc1nc2cc(C(F)(F)F)ccc2c(OC)c1C(=O)NCc1ccc(F)cc1 [Example 14, 2-ethoxy-N-[(4-fluorophenyl)-methyl]-4-methoxy-7-(trifluoromethyl)-quinoline-3-carboxylic acid amide] |
| 181% | 106 nM | CCOc1nc2cc(F)c(F)cc2c(OC)c1C(=O)NCc1cccc(F)c1 [Example 15, 2-ethoxy-6,7-difluoro-N-[(3-fluorophenyl)-methyl]-4-methoxy-quinoline-3-carboxylic acid amide] |
| 147% | 218 nM | COc1nc2cc(F)c(F)cc2c(OC)c1C(=O)NCc1cccc(F)c1 [Example 17, 6,7-difluoro-N-[(3-fluorophenyl)-methyl]-2,4-dimethoxy-quinoline-3-carboxylic acid amide] |
| 62% | 340 nM | COc1nc2cc(F)ccc2c(C)c1C(=O)NCc1cccc(F)c1 [Example 18, 7-fluoro-N-[(3-fluorophenyl)-methyl]-2-methoxy-4-methyl-quinoline-3-carboxylic acid amide] |
| 99% | 92 nM | COc1nc2cc(C(F)(F)F)ccc2c(C)c1C(=O)NCc1ccc(C)c(F)c1 [Example 19, N-[(3-fluoro-4-methyl-phenyl)-methyl]-2-methoxy-4-methyl-7-(trifluoromethyl)-quinoline-3-carboxylic acid amide] |
| 71% | 67 nM | COc1nc2cc(C(F)(F)F)ccc2c(C)c1C(=O)NCc1cccc(C)c1 [Example 21, 2-methoxy-4-methyl-N-(m-tolyl-methyl)-7-(trifluoromethyl)-quinoline-3-carboxylic acid amide] |
| 73% | 62 nM | COc1nc2cc(C(F)(F)F)ccc2c(C)c1C(=O)NCc1ccc(F)c(C)c1 [Example 23, N-[(4-fluoro-3-methyl-phenyl)-methyl]-2-methoxy-4-methyl-7-(trifluoromethyl)-quinoline-3-carboxylic acid amide] |
| 173% | 84 nM | CCOc1nc2cc(C(F)(F)F)ccc2c(C)c1C(=O)NCCCC(C)C [Example 27, 2-ethoxy-4-methyl-N-(4-methyl-pentyl)-7-(trifluoromethyl)-quinoline-3-carboxylic acid amide] |
| 214% | 50 nM | CCOc1nc2cc(C(F)(F)F)ccc2c(C)c1C(=O)NCCCC(C)(C)C [Example 30, N-(4,4-dimethyl-pentyl)-2-ethoxy-4-methyl-7-(trifluoromethyl)-quinoline-3-carboxylic acid amide] |
| 74% | 143 nM | COc1nc2cc(C#N)ccc2c(C)c1C(=O)NCc1ccc(F)cc1 [Example 38, 7-cyano-N-[(4-fluorophenyl)-methyl]-2-methoxy-4-methyl-quinoline-3-carboxylic acid amide] |
| 15% |  | COc1cc(F)cc(CNC(=O)c2c(OC)nc3cc(C(F)(F)F)ccc3c2C)c1 [Example 40, N-[(3-fluoro-5-methoxy-phenyl)-methyl]-2-methoxy-4-methyl-7-(trifluoromethyl)-quinoline-3-carboxylic acid amide] |
| 140% | 1540 nM | COc1ccc(F)cc1CNC(=O)c1c(OC)nc2cc(C(F)(F)F)ccc2c1C [Example 41, N-[(5-fluoro-2-methoxy-phenyl)-methyl]-2-methoxy-4-methyl-7-(trifluoromethyl)-quinoline-3-carboxylic acid amide] |
| 9% |  | COc1nc2cc(C(F)(F)F)ccc2c(C)c1C(=O)NCc1cc(O)cc(F)c1 [Example 43, N-[(3-fluoro-5-hydroxy-phenyl)-methyl]-2-methoxy-4-methyl-7-(trifluoromethyl)-quinoline-3-carboxylic acid amide] |
